# Reference: patent publication US12187742B2 (XRAD Therapeutics, Inc., priority 2018, dated 2025)
# Where a name gives a salt, the structure may show the parent alone.
# Molecular target: ATM (Homo sapiens (Human), UniProt Q13315)
# Experiment: ATM in Cell Western Assay (pKAP1 in etoposide-treated MCF-7 cells)
# Format: cell-based
# Settings: MCF-7 cells, etoposide 100 μM, 1 hr, pKAP1 readout
# Method: Assay of Compounds ATM and DNA-PK Inhibition
# ATM in Cell Western Assay:
# Next day, add corresponding concentration of compounds using pin tool (Echo 550), the final top concentration is 1 μM, 3-fold series dilution, total 10 doses. Then add etoposide (Sigma, #E1383) to a final concentration of 100 μM. Incubate at 37° C. for 1 hr. Fix cells by adding 25 μL of fixing solution (8% paraformaldehyde) for 20 minutes at ambient temperature. Permeabilize cells for 5 washes with 1×PBS (phosphate buffered saline) containing 0.1% Triton X-100; each wash is for 5 minutes. […] The next day, wash the plate 5 times with 1×PBST (1×PBS containing 0.1% Tween-20). […] Wash the cells for 5 times with 1×PBST (1×PBS containing 0.1% Tween-20) at ambient temperature, using gentle shaking in the dark. After the last wash
# remove wash solution, turn plate upside down onto a thin paper towel and centrifuge at 1000 rpm for 1 min to absorb all wash buffer. Clean the bottom of plate with moist lint free paper. Scan plate immediately using ODYSSEY CLx (LI-COR) for the best results.
# Sequence of ATM (Q13315 whole entry): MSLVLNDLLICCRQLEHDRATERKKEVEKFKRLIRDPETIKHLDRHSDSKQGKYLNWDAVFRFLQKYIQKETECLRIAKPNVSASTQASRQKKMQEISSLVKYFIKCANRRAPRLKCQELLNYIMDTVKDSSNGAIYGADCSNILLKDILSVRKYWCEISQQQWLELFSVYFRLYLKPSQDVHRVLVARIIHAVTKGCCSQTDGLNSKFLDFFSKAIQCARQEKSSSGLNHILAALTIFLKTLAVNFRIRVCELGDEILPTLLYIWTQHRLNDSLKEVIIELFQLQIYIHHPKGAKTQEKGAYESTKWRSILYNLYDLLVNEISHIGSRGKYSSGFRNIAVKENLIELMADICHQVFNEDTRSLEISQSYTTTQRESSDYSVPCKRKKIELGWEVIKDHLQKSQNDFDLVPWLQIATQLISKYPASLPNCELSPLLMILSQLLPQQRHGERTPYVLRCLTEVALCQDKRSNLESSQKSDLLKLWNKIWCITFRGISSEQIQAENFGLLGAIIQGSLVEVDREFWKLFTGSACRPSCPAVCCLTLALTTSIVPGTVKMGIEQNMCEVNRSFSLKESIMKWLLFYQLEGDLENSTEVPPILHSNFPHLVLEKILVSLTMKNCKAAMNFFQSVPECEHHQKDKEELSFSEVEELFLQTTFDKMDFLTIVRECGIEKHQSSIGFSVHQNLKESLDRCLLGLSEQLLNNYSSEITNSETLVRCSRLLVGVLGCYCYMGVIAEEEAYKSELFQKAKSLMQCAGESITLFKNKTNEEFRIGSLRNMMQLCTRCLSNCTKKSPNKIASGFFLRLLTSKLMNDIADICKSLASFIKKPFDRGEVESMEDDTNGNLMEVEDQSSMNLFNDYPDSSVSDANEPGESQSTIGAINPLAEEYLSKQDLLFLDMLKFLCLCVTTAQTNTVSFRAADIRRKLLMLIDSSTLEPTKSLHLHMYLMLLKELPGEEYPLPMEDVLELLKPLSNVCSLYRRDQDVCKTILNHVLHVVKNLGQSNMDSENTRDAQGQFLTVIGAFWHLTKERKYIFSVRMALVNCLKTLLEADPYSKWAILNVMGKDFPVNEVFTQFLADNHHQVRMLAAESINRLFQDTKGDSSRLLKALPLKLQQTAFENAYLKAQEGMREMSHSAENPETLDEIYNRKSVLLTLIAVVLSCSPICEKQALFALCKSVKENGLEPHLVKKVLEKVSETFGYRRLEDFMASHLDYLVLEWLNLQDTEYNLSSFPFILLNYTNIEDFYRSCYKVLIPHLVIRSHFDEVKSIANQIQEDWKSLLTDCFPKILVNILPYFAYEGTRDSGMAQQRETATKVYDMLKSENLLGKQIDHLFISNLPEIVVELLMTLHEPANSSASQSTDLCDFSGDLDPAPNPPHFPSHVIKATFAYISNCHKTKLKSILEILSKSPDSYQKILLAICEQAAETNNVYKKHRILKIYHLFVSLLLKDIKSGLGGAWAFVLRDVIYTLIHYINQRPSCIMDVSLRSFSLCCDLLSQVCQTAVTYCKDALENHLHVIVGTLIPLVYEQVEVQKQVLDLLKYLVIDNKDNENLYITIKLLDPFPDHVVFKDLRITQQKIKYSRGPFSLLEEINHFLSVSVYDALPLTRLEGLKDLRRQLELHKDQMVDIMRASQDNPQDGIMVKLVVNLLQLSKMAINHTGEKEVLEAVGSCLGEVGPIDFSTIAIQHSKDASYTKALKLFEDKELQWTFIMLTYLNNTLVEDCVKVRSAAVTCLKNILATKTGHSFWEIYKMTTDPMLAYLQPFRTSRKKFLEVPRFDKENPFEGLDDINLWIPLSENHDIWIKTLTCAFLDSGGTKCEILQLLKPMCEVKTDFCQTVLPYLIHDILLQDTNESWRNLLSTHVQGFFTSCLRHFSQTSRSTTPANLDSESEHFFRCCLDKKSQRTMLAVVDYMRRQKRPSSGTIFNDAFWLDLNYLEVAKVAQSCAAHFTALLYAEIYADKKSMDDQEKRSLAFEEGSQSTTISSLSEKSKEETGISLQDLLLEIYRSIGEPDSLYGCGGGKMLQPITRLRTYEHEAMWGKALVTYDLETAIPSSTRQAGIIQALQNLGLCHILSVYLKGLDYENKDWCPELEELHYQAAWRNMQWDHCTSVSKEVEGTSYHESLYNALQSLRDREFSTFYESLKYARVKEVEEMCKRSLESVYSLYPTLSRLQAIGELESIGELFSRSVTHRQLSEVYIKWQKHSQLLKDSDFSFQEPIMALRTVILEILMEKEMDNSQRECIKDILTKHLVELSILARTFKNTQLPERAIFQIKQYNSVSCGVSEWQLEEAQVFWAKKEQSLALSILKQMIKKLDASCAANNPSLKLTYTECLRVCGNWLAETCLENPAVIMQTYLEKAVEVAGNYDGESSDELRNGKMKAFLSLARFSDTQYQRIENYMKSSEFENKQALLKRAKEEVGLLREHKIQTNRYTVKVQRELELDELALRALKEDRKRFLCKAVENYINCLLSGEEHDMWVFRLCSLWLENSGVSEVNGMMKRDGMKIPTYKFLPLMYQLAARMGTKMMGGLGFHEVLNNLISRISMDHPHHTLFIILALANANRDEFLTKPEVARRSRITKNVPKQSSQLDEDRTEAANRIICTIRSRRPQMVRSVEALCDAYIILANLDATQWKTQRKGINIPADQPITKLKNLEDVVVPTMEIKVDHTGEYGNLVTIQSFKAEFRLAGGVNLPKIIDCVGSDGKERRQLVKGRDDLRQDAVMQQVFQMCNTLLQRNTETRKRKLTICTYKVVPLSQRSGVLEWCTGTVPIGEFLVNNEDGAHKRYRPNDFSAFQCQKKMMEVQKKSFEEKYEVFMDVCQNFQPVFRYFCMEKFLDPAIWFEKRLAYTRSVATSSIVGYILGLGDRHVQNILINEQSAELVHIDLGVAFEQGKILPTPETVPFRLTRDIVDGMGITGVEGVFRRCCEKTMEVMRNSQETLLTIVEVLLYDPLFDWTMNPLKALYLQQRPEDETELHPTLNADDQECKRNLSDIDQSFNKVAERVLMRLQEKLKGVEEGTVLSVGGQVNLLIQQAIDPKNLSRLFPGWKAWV
row,IC50 [µM],SMILES
1,> 0.1,"CN1C(=O)C2(CCC2)c2c1cnc1ccc(-c3cnc(OCCCN4CC5CC(C4)O5)c(NS(C)(=O)=O)c3)cc21 [Example 303, N-(2-(3-(6-Oxa-3-azabicyclo[3.1.1]heptan-3-yl)propoxy)-5-(3′-methyl-2′-oxo-2′,3′-dihydrospiro[cyclobutane-1,1′-pyrrolo[2,3-c]quinolin]-8′-yl)pyridin-3-yl)methanesulfonamide]"
2,0.001 to 0.1,"CC(C)NC1CN(c2ncc(-c3cc4c5c(cnc4cc3F)N(C)C(=O)C53CCC3)cc2NS(C)(=O)=O)C1 [Example 328, N-(5-(7′-Fluoro-3′-methyl-2′-oxo-2′,3′-dihydrospiro[cyclobutane-1,1′-pyrrolo[2,3-c]quinolin]-8′-yl)-2-(3-(isopropylamino)azetidin-1-yl)pyridin-3-yl)methanesulfonamide hydrochloride]"
3,0.001 to 0.1,"CN1C(=O)C2(CCC2)c2c1cnc1ccc(-c3cnc(CCCCN4CCCCC4)c(NS(C)(=O)=O)c3)cc21 [Example 269, N-(5-(3′-Methyl-2′-oxo-2′,3′-dihydrospiro[cyclobutane-1,1′-pyrrolo[2,3-c]quinolin]-8′-yl)-2-(4-(piperidin-1-yl)butyl)pyridin-3-yl)methanesulfonamide]"
4,> 0.1,"COc1ncc(-c2ccc3ncc4c(c3c2)C2(CC2)C(=O)N4C)cc1C(C)(C)O [Example 26, 8′-(5-(2-Hydroxypropan-2-yl)-6-methoxypyridin-3-yl)-3′-methylspiro [cyclopropane-1,1′-pyrrolo[2,3-c]quinolin]-2′(3′-H)-one]"
5,0.001 to 0.1,"CN(C)CCCOc1ncc(-c2ccc3ncc4c(c3c2)C2(CCC2)C(=O)N4C)cc1NS(=O)(=O)CS(C)(=O)=O [Example 274, N-(2-(3-(Dimethylamino)propoxy)-5-(3′-methyl-2′-oxo-2′,3′-dihydrospiro[cyclobutane-1,1′-pyrrolo[2,3-c]quinolin]-8′-yl)pyridin-3-yl)-1-(methylsulfonyl)methanesulfonamide]"
6,0.0005 to 0.001,CN(C)CCCOc1ncc(-c2ccc3ncc4c(c3c2)C2(CC2)C(=O)N4C)cc1NS(=O)(=O)c1cccs1 [Example 120]

# Same assay, conditions: pKAP1 in etoposide-treated MCF-7 cells
row,IC50 [µM],SMILES
1,0.001 to 0.1,"CC(C)NCCOc1ncc(-c2cc3c4c(cnc3cc2F)N(C)C(=O)C42CN(C3CCCCC3)C2)cc1NS(C)(=O)=O [Example 499, N-(5-(1-Cyclohexyl-7′-fluoro-3′-methyl-2′-oxo-2′,3′-dihydrospiro[azetidine-3,1′-pyrrolo[2,3-c]quinolin]-8′-yl)-2-(2-(isopropylamino)ethoxy)pyridin-3-yl)methanesulfonamide]"
2,0.001 to 0.1,"CC(C)NCCOc1ncc(-c2cc3c4c(cnc3cc2F)N(C)C(=O)C42CN([C@@H](C)c3ccccc3)C2)cc1NS(C)(=O)=O [Example 493, (S)-N-(5-(7′-Fluoro-3′-methyl-2′-oxo-1-(1-phenylethyl)-2′,3′-dihydrospiro [azetidine-3,1′-pyrrolo[2,3-c]quinolin]-8′-yl)-2-(2-(isopropylamino)ethoxy)pyridin-3-yl)methanesulfonamide]"
3,0.001 to 0.1,"CC(C)NCCOc1ncc(-c2cc3c(cc2F)ncc2c3[C@]3(C[C@@H](CN(C)C)C3)C(=O)N2C)cc1NS(C)(=O)=O [Example 453, trans-N-(5-(3-((Dimethylamino)methyl)-7′-fluoro-3′-methyl-2′-oxo-2′,3′-dihydrospiro[cyclobutane-1,1′-pyrrolo[2,3-c]quinolin]-8′-yl)-2-(2-(isopropylamino)ethoxy)pyridin-3-yl)methanesulfonamide]"
4,> 0.1,"CC(C)NCCOc1ncc(-c2cc3c4c(cnc3cc2F)N(C)C(=O)C42CCC2)cc1NS(=O)(=O)C(F)F [Example 368, 1,1-Difluoro-N-(5-(7′-fluoro-3′-methyl-2′-oxo-2′,3′-dihydrospiro[cyclobutane-1,1′-pyrrolo[2,3-c]quinolin]-8′-yl)-2-(2-(isopropylamino)ethoxy)pyridin-3-yl)methanesulfonamide]"
5,0.001 to 0.1,"CC(C)NCCOc1ncc(-c2cc3c4c(cnc3cc2F)N(C)C(=O)C42CN(c3cccnc3)C2)cc1NS(C)(=O)=O [Example 548, N-(5-(7′-Fluoro-3′-methyl-2′-oxo-1-(pyridin-3-yl)-2′,3′-dihydrospiro [azetidine-3,1′-pyrrolo[2,3-c]quinolin]-8′-yl)-2-(2-(isopropylamino)ethoxy)pyridin-3-yl)methanesulfonamide hydrochloride]"
6,0.001 to 0.1,"CC(C)NCCOc1ncc(-c2cc3c(cc2F)ncc2c3[C@]3(C[C@H](N4CCCC4)C3)C(=O)N2C)cc1NS(C)(=O)=O [Example 467, cis-N-(5-(7′-Fluoro-3′-methyl-2′-oxo-3-(pyrrolidin-1-yl)-2′,3′-dihydrospiro[cyclobutane-1,1′-pyrrolo[2,3-c]quinolin]-8′-yl)-2-(2-(isopropylamino)ethoxy)pyridin-3-yl)methanesulfonamide]"
7,0.001 to 0.1,"CC(C)NCCOc1ncc(-c2cc3c(cc2F)ncc2c3[C@]3(C[C@@H](N4CCCC4)C3)C(=O)N2C)cc1NS(C)(=O)=O [Example 468, trans-N-(5-(7′-Fluoro-3′-methyl-2′-oxo-3-(pyrrolidin-1-yl)-2′,3′-dihydrospiro[cyclobutane-1,1′-pyrrolo[2,3-c]quinolin]-8′-yl)-2-(2-(isopropylamino)ethoxy)pyridin-3-yl)methanesulfonamide]"
8,> 0.1,"CN1C(=O)C2(CCC2)c2c1cnc1ccc(-c3cnc(N4CC5CC(C4)N5C(=O)OC(C)(C)C)c(NS(C)(=O)=O)c3)cc21 [Example 359, tert-Butyl 3-(5-(3′-methyl-2′-oxo-2′,3′-dihydrospiro [cyclobutane-1,1′-pyrrolo[2,3-c]quinolin]-8′-yl)-3-(methylsulfonamido)pyridin-2-yl)-3,6-diazabicydo[3.1.1] heptane-6-carboxylate]"
9,0.001 to 0.1,"CCCCN1CC2(C1)C(=O)N(C)c1cnc3cc(F)c(-c4cnc(OCCNC(C)C)c(NS(C)(=O)=O)c4)cc3c12 [Example 489, N-(5-(1-butyl-7′-fluoro-3′-methyl-2′-oxo-2′,3′-dihydrospiro[azetidine-3,1′-pyrrolo[2,3-c]quinolin]-8′-yl)-2-(2-(isopropylamino)ethoxy)pyridin-3-yl)methanesulfonamide]"
10,> 0.1,"CC(C)NCCOc1ncc(-c2cc3c4c(cnc3cc2F)N(C)C(=O)C42CN(C3CCNCC3)C2)cc1NS(C)(=O)=O [Example 501, N-(5-(7′-Fluoro-3′-methyl-2′-oxo-1-(piperidin-4-yl)-2′,3′-dihydrospiro[azetidine-3,1′-pyrrolo[2,3-c]quinolin]-8′-yl)-2-(2-(isopropylamino)ethoxy)pyridin-3-yl)methanesulfonamide]"
11,> 0.1,"COC(=O)N1CC2(C1)C(=O)N(C)c1cnc3cc(F)c(-c4cnc(OCCNC(C)C)c(NS(C)(=O)=O)c4)cc3c12 [Example 513, Methyl7′-fluoro-8′-(6-(2-(isopropylamino)ethoxy)-5-(methylsulfonamido)pyridin-3-yl)-3′-methyl-2′-oxo-2′,3′-dihydrospiro[azetidine-3,1′-pyrrolo[2,3-c]quinoline]-1-carboxylate]"
12,> 0.1,"CC(C)NCCOc1ncc(-c2cc3c(cc2F)ncc2c3[C@]3(C[C@@H](N(C)c4ccccc4)C3)C(=O)N2C)cc1NS(C)(=O)=O [Example 464, trans-N-{5-(7′-Fluoro-3′-methyl-3-(methyl(phenyl)amino)-2′-oxo-2′,3′-dihydrospiro[cyclobutane-1,1′-pyrrolo[2,3-c]quinolin]-8′-yl)-2-(2-(isopropylamino)ethoxy)pyridin-3-yl)methanesulfonamide]"
13,0.001 to 0.1,"CC(C)NCCOc1ncc(-c2cc3c4c(cnc3cc2F)N(C)C(=O)C42CN(CCO)C2)cc1NS(C)(=O)=O [Example 506, N-(5-(7′-Fluoro-1-(2-hydroxyethyl)-3′-methyl-2′-oxo-2′,3′-dihydrospiro[azetidine-3,1′-pyrrolo[2,3-c]quinolin]-8′-yl)-2-(2-(isopropylamino)ethoxy)pyridin-3-yl)methanesulfonamide]"
14,0.001 to 0.1,"CCC(C)N1CC2(C1)C(=O)N(C)c1cnc3cc(F)c(-c4cnc(OCCNC(C)C)c(NS(C)(=O)=O)c4)cc3c12 (centres unmarked) [Example 487, N-(5-(1-(sec-Butyl)-7′-fluoro-3′-methyl-2′-oxo-2′,3′-dihydrospiro[azetidine-3,1′-pyrrolo[2,3-c]quinolin]-8′-yl)-2-(2-(isopropylamino)ethoxy)pyridin-3-yl)methanesulfonamide]"
15,> 0.1,"CN1C(=O)C2(CCC2)c2c1cnc1ccc(-c3cnc(N4CC5(CN(C(=O)OC(C)(C)C)C5)C4)c(NS(C)(=O)=O)c3)cc21 [Example 347, tert-Butyl 6-(5-(3′-methyl-2′-oxo-2′,3′-dihydrospiro [cyclobutane-1,1′-pyrrolo[2,3-c]quinolin]-8′-yl)-3-(methylsulfonamido)pyridin-2-yl)-2,6-diazaspiro[3.3] heptane-2-carboxylate]"
16,0.001 to 0.1,"CC(C)NCCOc1ncc(-c2cc3c4c(cnc3cc2F)N(C)C(=O)C42CN(Cc3ccccc3)C2)cc1NS(C)(=O)=O [Example 495, N-(5-(1-Benzyl-7-fluoro-3′-methyl-2′-oxo-2′,3′-dihydrospiro[azetidine-3,1′-pyrrolo[2,3-c]quinolin]-8′-yl)-2-(2-(isopropylamino)ethoxy)pyridin-3-yl)methanesulfonamide]"

row,SMILES,IC50 [µM]
1,"CC(C)NCCOc1ncc(-c2cc3c4c(cnc3cc2F)N(C)C(=O)C42CCC2)cc1NS(=O)(=O)CC#N [Example 374, 1-Cyano-N′-(5-(7′-fluoro-3′-methyl-2′-oxo-2′,3′-dihydrospiro[cyclobutane-1,1′-pyrrolo[2,3-c]quinolin]-8′-yl)-2-(2-(isopropylamino)ethoxy)pyridin-3-yl) methanesulfonamide hydrochloride]",0.001 to 0.1
